Measured values published in US20240383954A1, “PEPTIDE INHIBITORS OF INTERLEUKIN-23 RECEPTOR AND THEIR USE TO TREAT INFLAMMATORY DISEASES” (Janssen Biotech, Inc., priority 2020, published 2024).
Positions of bridges follow the written chain, without caps; N, C: chain ends. Non-standard residues stand in square brackets, D forms with d. Residues, ends and D or L forms follow the SMILES beside them. Trp(7-Me) = Cc1cccc2c(C[C@H](N)C(=O)O)c[nH]c12; dPhe(4-NH2) = Nc1ccc(C[C@@H](N)C(=O)O)cc1; Ac6c(4,4-F2) = NC1(C(=O)O)CCC(F)(F)CC1; 2Nal = N[C@@H](Cc1ccc2ccccc2c1)C(=O)O; AEF = NCCOc1ccc(C[C@H](N)C(=O)O)cc1; αMeF = C[C@](N)(Cc1ccccc1)C(=O)O; Cit = NC(=O)NCCC[C@H](N)C(=O)O; αMeL = CC(C)C[C@](C)(N)C(=O)O; Pen = CC(C)(S)[C@H](N)C(=O)O; αMeK = C[C@](N)(CCCCN)C(=O)O; Ac5c = NC1(C(=O)O)CCCC1; Thp = NC1(C(=O)O)CCOCC1; Ac3c = NC1(C(=O)O)CC1; Aib = CC(C)(N)C(=O)O

Target: IL-23R (Homo sapiens, UniProt Q5VWK5)
Test: cell-based
Conditions: PBMC pSTAT3 IC50 (nM), PBMCs from healthy donors, IL-23 5 ng/mL, 30 minutes, phosphorylated STAT3
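Further: cryopreserved PBMCs stimulated at 37 °C in 5% CO2, then lysed, with phosphorylated STAT3 quantified in lysates using a phospho-STAT panel kit.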

Sequence of IL-23R (Q5VWK5 24-629): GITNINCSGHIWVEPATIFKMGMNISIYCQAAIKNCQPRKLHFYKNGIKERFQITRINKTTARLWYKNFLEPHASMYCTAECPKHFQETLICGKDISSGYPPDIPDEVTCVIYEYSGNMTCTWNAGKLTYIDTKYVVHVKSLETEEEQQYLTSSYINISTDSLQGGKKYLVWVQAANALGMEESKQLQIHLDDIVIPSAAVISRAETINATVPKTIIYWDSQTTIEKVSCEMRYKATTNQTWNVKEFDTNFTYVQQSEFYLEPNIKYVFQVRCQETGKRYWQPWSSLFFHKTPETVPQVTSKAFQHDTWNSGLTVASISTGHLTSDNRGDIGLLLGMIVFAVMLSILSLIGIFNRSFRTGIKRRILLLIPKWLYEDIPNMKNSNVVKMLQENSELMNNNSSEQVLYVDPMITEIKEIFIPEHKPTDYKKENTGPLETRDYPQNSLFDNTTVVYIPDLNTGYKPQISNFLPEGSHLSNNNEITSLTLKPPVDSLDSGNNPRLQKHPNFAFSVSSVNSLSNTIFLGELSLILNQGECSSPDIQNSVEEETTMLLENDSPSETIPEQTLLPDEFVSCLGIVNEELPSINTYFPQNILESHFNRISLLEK

| SMILES | IC50 |
| --- | --- |
| CC(=O)NCCCC[C@@H]1NC(=O)[C@H](Cc2c[nH]c3c(C)cccc23)NC(=O)[C@H]([C@@H](C)O)NC(=O)[C@H](CC(N)=O)NC(=O)[C@@H](NC(C)=O)C(C)(C)SSC(C)(C)[C@@H](C(=O)N[C@@H](Cc2ccc(OCCN)cc2)C(=O)N[C@@H](Cc2ccc3ccccc3c2)C(=O)N[C@@](C)(CCCCN)C(=O)N[C@@H](CCCCNC(C)=O)C(=O)N[C@@H](CC(N)=O)C(=O)NC2(C(=O)N[C@H](Cc3ccc(O)cc3)C(N)=O)CCOCC2)NC1=O [Compound 107, Ac-[Pen]-N-T-[W(7-Me)]-[Lys(Ac)]-[Pen]-Phe[4-(2-aminoethoxy)]-[2-Nal]-[a-MeLys]-[Lys(Ac)]-N-[THP]-[(D)Tyr]-NH2] | 11 nM |
| CC(=O)NCCCC[C@H](NC(=O)[C@](C)(CCCCN)NC(=O)[C@H](Cc1ccc2ccccc2c1)NC(=O)[C@H](Cc1ccc(OCCN)cc1)NC(=O)[C@H]1NC(=O)[C@H](CCCNC(N)=O)NC(=O)[C@H](Cc2c[nH]c3c(C)cccc23)NC(=O)[C@H]([C@@H](C)O)NC(=O)[C@H](CC(N)=O)NC(=O)[C@@H](NC(C)=O)C(C)(C)SSC1(C)C)C(=O)N[C@@H](CC(N)=O)C(=O)NC(C)(C)C(N)=O [Compound 302, MeCO-Pen-N-T-7MeW-Cit-Pen-AEF-2Nal-aMeK-K(Ac)-N-Aib-CONH2] (Ac-[Pen]NT[Trp(7-Me)][Cit][Pen][AEF][2Nal][αMeK]K(Ac)N[Aib]-NH2; disulfide 1-6) | 7 nM |
| CC(=O)NCCCC[C@@H]1NC(=O)[C@H](Cc2c[nH]c3c(C)cccc23)NC(=O)[C@H]([C@@H](C)O)NC(=O)[C@H](CC(N)=O)NC(=O)[C@@H](NC(C)=O)C(C)(C)SSC(C)(C)[C@@H](C(=O)N[C@@H](Cc2ccc(OCCN)cc2)C(=O)N[C@@H](Cc2ccc3ccccc3c2)C(=O)NC2(C(=O)N[C@@H](CCCCNC(=O)C(F)(F)F)C(=O)N[C@@H](CC(N)=O)C(=O)N[C@@](C)(Cc3ccccc3)C(N)=O)CCOCC2)NC1=O [Compound 138, Ac-[Pen]-N-T-[W(7-Me)]-[Lys(Ac)]-[Pen]-Phe[4-(2-aminoethoxy)]-[2-Nal]-[THP]-[Lys(COCF3)]-N-[a-MePhe]-NH2] | 7.6 nM |
| CC(=O)NCCCC[C@@H]1NC(=O)[C@H](Cc2c[nH]c3c(C)cccc23)NC(=O)[C@H]([C@@H](C)O)NC(=O)[C@H](CC(N)=O)NC(=O)[C@@H](NC(=O)[C@@H](CCCNC(=N)N)NC(C)=O)C(C)(C)SSC(C)(C)[C@@H](C(=O)N[C@@H](Cc2ccc(OCCNC(C)=O)cc2)C(=O)N[C@@H](Cc2ccc3ccccc3c2)C(=O)NC2(C(=O)N[C@@H](CCC(=O)O)C(=O)N[C@@H](CC(N)=O)C(=O)NC3(C(N)=O)CCOCC3)CC2)NC1=O [Compound 308, MeCO-r-Pen-N-T-7MeW-K(Ac)-Pen-AEF(Ac)-2Nal-Acpx-E-N-THP-CONH2] (Ac-[dR][Pen]NT[Trp(7-Me)]K(Ac)[Pen][AEF](Ac)[2Nal][Ac3c]EN[Thp]-NH2; disulfide 2-7) | 8 nM |
| CC(=O)NCCCC[C@@H]1NC(=O)[C@H](Cc2c[nH]c3c(C)cccc23)NC(=O)[C@H]([C@@H](C)O)NC(=O)[C@H](CC(N)=O)NC(=O)[C@@H](NC(C)=O)CSSC[C@@](C)(C(=O)N[C@@H](Cc2ccc(OCCN)cc2)C(=O)N[C@@H](Cc2ccc3ccccc3c2)C(=O)N[C@@](C)(CCCCN)C(=O)N[C@@H](CCCCNC(C)=O)C(=O)N[C@@H](CC(N)=O)C(=O)N[C@@](C)(Cc2ccccc2)C(N)=O)NC1=O [Compound 118, Ac-[Cys]-N-T-[W(7-Me)]-[Lys(Ac)]-[aMeCys]-Phe[4-(2-aminoethoxy)]-[2-Nal]-[a-MeLys]-[Lys(Ac)]-N-[a-MePhe]-NH2] | 30 nM |
| CC(=O)N[C@H](CCCNC(=N)N)C(=O)N[C@@H]1C(=O)N[C@@H](CC(N)=O)C(=O)N[C@@H]([C@@H](C)O)C(=O)N[C@@H](Cc2c[nH]c3c(C)cccc23)C(=O)N[C@@H](CCCNC(N)=O)C(=O)N[C@H](C(=O)N[C@@H](Cc2ccc(OCCN)cc2)C(=O)N[C@@H](Cc2ccc3ccccc3c2)C(=O)N[C@@](C)(CC(C)C)C(=O)N[C@@H](CCC(=O)O)C(=O)N[C@@H](CC(N)=O)C(=O)N[C@@](C)(Cc2ccccc2)C(N)=O)C(C)(C)SSC1(C)C [Compound 149, Ac-[(D)Arg]-[Pen]-N-T-[W(7-Me)]-[Cit]-[Pen]-Phe[4-(2-aminoethoxy)]-[2-Nal]-[aMeLeu]-E-N-[a-MePhe]-NH2] (Ac-[dR][Pen]NT[Trp(7-Me)][Cit][Pen][AEF][2Nal][αMeL]EN[αMeF]-NH2; disulfide 2-7) | 2.3 nM |
| CC(=O)NCCCC[C@@H]1NC(=O)[C@H](Cc2c[nH]c3ccccc23)NC(=O)[C@H]([C@@H](C)O)NC(=O)[C@H](CC(N)=O)NC(=O)[C@@H](NC(=O)[C@@H](CCCNC(=N)N)NC(C)=O)C(C)(C)SSC(C)(C)[C@@H](C(=O)N[C@@H](Cc2ccc(OCCN)cc2)C(=O)N[C@@H](Cc2ccc3ccccc3c2)C(=O)NC2(C(=O)N[C@@H](CCC(=O)O)C(=O)N[C@@H](CC(N)=O)C(=O)N[C@@](C)(Cc3ccccc3)C(N)=O)CCOCC2)NC1=O [Compound 106, Ac-[(D)Arg]-[Pen]-N-T-W-[Lys(Ac)]-[Pen]-Phe[4-(2-aminoethoxy)]-[2-Nal]-[THP]-E-N-[a-MePhe]-NH2] (Ac-[dR][Pen]NTWK(Ac)[Pen][AEF][2Nal][Thp]EN[αMeF]-NH2; disulfide 2-7) | 13 nM |
| CC(=O)NCCCC[C@@H]1NC(=O)[C@H](Cc2c[nH]c3c(C)cccc23)NC(=O)[C@H]([C@@H](C)O)NC(=O)[C@H](CC(N)=O)NC(=O)[C@@H](NC(C)=O)C(C)(C)SSC(C)(C)[C@@H](C(=O)N[C@@H](Cc2ccc(OCCN)cc2)C(=O)N[C@@H](Cc2ccc3ccccc3c2)C(=O)N[C@@](C)(CCCCN)C(=O)N[C@@H](CCCCNC(C)=O)C(=O)N[C@@H](CC(N)=O)C(=O)NC2(C(N)=O)CCOCC2)NC1=O [Compound 75, Ac-[Pen]-N-T-[W(7-Me)]-[Lys(Ac)]-[Pen]-Phe[4-(2-aminoethoxy)]-[2-Nal]-[a-MeLys]-[Lys(Ac)]-N-[THP]-NH2] | 8.9 nM |
| CC(=O)NCCCC[C@@H]1NC(=O)[C@H](Cc2c[nH]c3c(C)cccc23)NC(=O)[C@H]([C@@H](C)O)NC(=O)[C@H](CC(N)=O)NC(=O)[C@@H](NC(=O)[C@@H](CCCNC(=N)N)NC(C)=O)C(C)(C)SSC(C)(C)[C@@H](C(=O)N[C@@H](Cc2ccc(OCCN)cc2)C(=O)N[C@@H](Cc2ccc3ccccc3c2)C(=O)NC2(C(=O)N[C@@H](CCC(=O)O)C(=O)N[C@@H](CC(N)=O)C(=O)NC3(C(N)=O)CCOCC3)CCOCC2)NC1=O [Compound 92, Ac-[(D)Arg]-[Pen]-N-T-[W(7-Me)]-[Lys(Ac)]-[Pen]-Phe[4-(2-aminoethoxy)]-[2-Nal]-[THP]-E-N-[THP]-NH2] (Ac-[dR][Pen]NT[Trp(7-Me)]K(Ac)[Pen][AEF][2Nal][Thp]EN[Thp]-NH2; disulfide 2-7) | 3.3 nM |
| CC(=O)NCCCC[C@@H]1NC(=O)[C@H](Cc2c[nH]c3c(C)cccc23)NC(=O)[C@H]([C@@H](C)O)NC(=O)[C@H](CC(N)=O)NC(=O)[C@@H](NC(=O)[C@@H](CCCNC(=N)N)NC(C)=O)C(C)(C)SSC(C)(C)[C@@H](C(=O)N[C@@H](Cc2ccc(OCCN)cc2)C(=O)N[C@@H](Cc2ccc3ccccc3c2)C(=O)NC2(C(=O)N[C@@H](CCC(=O)O)C(=O)N[C@@H](CC(N)=O)C(=O)NC3(C(N)=O)CCOCC3)CCC(F)(F)CC2)NC1=O [Compound 303, MeCO-r-Pen-N-T-7MeW-K(Ac)-Pen-AEF-2Nal-4diFAchx-E-N-THP--CONH2] (Ac-[dR][Pen]NT[Trp(7-Me)]K(Ac)[Pen][AEF][2Nal][Ac6c(4,4-F2)]EN[Thp]-NH2; disulfide 2-7) | 1.3 nM |
| CC(=O)NCCCC[C@H](NC(=O)[C@](C)(CCCCN)NC(=O)[C@H](Cc1ccc2ccccc2c1)NC(=O)[C@H](Cc1ccc(OCCN)cc1)NC(=O)[C@H]1NC(=O)[C@H](CCC(N)=O)NC(=O)[C@H](Cc2c[nH]c3c(C)cccc23)NC(=O)[C@H]([C@@H](C)O)NC(=O)[C@H](CC(N)=O)NC(=O)[C@@H](NC(C)=O)C(C)(C)SSC1(C)C)C(=O)N[C@@H](CC(N)=O)C(=O)N[C@@](C)(Cc1ccccc1)C(N)=O [Compound 89, Ac-[Pen]-N-T-[W(7-Me)]-Q-[Pen]-Phe[4-(2-aminoethoxy)]-[2-Nal]-[a-MeLys]-[Lys(Ac)]-N-[a-MePhe]-NH2] | 12 nM |
| CC(=O)NCCCC[C@@H]1NC(=O)[C@H](Cc2c[nH]c3ccccc23)NC(=O)[C@H]([C@@H](C)O)NC(=O)[C@H](CC(N)=O)NC(=O)[C@@H](NC(C)=O)C(C)(C)SSC(C)(C)[C@@H](C(=O)N[C@@H](Cc2ccc(OCCN)cc2)C(=O)N[C@@H](Cc2ccc3ccccc3c2)C(=O)N[C@@](C)(CCCCN)C(=O)N[C@@H](CCCCNC(C)=O)C(=O)N[C@@H](CC(N)=O)C(=O)N[C@@](C)(Cc2ccccc2)C(N)=O)NC1=O [Compound 98, Ac-[Pen]-N-T-W-[Lys(Ac)]-[Pen]-Phe[4-(2-aminoethoxy)]-[2-Nal]-[a-MeLys]-[Lys(Ac)]-N-[a-MePhe]-NH2] | 15 nM |
| CC(=O)NCCCC[C@@H]1NC(=O)[C@H](Cc2c[nH]c3c(C)cccc23)NC(=O)[C@H]([C@@H](C)O)NC(=O)[C@H](CC(N)=O)NC(=O)[C@@H](NC(=O)[C@@H](CCCNC(=N)N)NC(C)=O)C(C)(C)SSC(C)(C)[C@@H](C(=O)N[C@@H](Cc2ccc(OCCN)cc2)C(=O)N[C@@H](Cc2ccc3ccccc3c2)C(=O)NC2(C(=O)N[C@@H](CCC(=O)O)C(=O)N[C@@H](CC(N)=O)C(=O)N[C@@H](Cc3c[nH]cn3)C(=O)N[C@H](Cc3ccc(N)cc3)C(N)=O)CC2)NC1=O [Compound 315, MeCO-r-Pen-N-T-7MeW-K(Ac)-Pen-AEF-2Nal-Acpx-E-N-H-4AmDPhe---CONH2] (Ac-[dR][Pen]NT[Trp(7-Me)]K(Ac)[Pen][AEF][2Nal][Ac3c]ENH[dPhe(4-NH2)]-NH2; disulfide 2-7) | 2 nM |
| CC(=O)NCCCC[C@@H]1NC(=O)[C@H](Cc2c[nH]c3c(C)cccc23)NC(=O)[C@H]([C@@H](C)O)NC(=O)[C@H](CC(N)=O)NC(=O)[C@@H](NC(=O)[C@@H](CCCNC(=N)N)NC(C)=O)C(C)(C)SSC(C)(C)[C@@H](C(=O)N[C@@H](Cc2ccc(OCCN)cc2)C(=O)N[C@@H](Cc2ccc3ccccc3c2)C(=O)NC2(C(=O)N[C@@H](CCC(=O)O)C(=O)N[C@@H](CC(N)=O)C(=O)NC3(C(N)=O)CCOCC3)CCCC2)NC1=O [Compound 101, Ac-[(D)Arg]-[Pen]-N-T-[W(7-Me)]-[Lys(Ac)]-[Pen]-Phe[4-(2-aminoethoxy)]-[2-Nal]-[Acvc]-E-N-[THP]-NH2] (Ac-[dR][Pen]NT[Trp(7-Me)]K(Ac)[Pen][AEF][2Nal][Ac5c]EN[Thp]-NH2; disulfide 2-7) | 0.74 nM |
